From patent US20080063628A1, “METHODS TO PROMOTE CELL DIFFERENTIATION” (priority 2006, published 2008)

Tests used:
Test in all cases: 6 hour trichostatin A treatment, gene expression by RT-PCR (Example 10)
Type in all cases: cell-based, human
[1] = test system: early passage (P5) pancreatic-derived stromal cell line; details: for HNF-3 beta gene expression / Insulin gene expression / Pdx-1 gene expression / glucagon gene expression: 5 μM for 6 h then removed
Procedure: (§1) Amniotic fluid derived cells or pancreas-derived cells were seeded into 24-well tissue culture plates at a density of 5000/cm^2 and cultured in AMNIOMAX (Invitrogen) or DMEM with 10% FBS respectively under standard cell culture conditions until confluency was reached. Upon reaching confluency, amniotic fluid derived cells were treated with 1.25 μM trichostatin A and pancreas-derived stromal cells were treated with 5.0 μM trichostatin A. The media was changed 6 hours following the addition of trichostatin A and cultures were maintained for the remainder of the experiment. Several cell lines obtained from amniotic fluid (see Example 14) and pancreas (see Example 13) were tested.
(§2) RNA samples were obtained at the time the trichostatin A was removed and 24 hours from the start of the experiment. The culture media was removed and cells were washed with PBS then collected in RLT Lysis Buffer with β-mercaptoethanol (Qiagen). RNA was purified using the RNeasy Mini Kit (Qiagen) and RNA quantity and quality was determined using a spectrophotometer. cDNA was made using the iScript cDNA synthesis kit (BioRad). Human pancreas cDNA was included as a control. Results were normalized against GAPDH expression levels.
(§3) The expression levels of Sox17, HNF-3 beta, Pdx-1, Insulin, and Gata-1 were analyzed in amniotic-derived cells while the expression levels of glucagon, insulin, PDX-1 and HNF-3 beta were analyzed in pancreas-derived cells. 20 ng of cDNA was used in each RT-PCR reaction, which was performed on the Applied Biosystems 7500, according to the methods described in Example 15. Data was analyzed using the accompanying software.
(§4) Real-time PCR amplifcation and quantitative analysis. Unless otherwise stated, all reagents were purchased from Applied Biosystems. Real-time PCR reactions were performed using the ABI PRISM™ 7500 Sequence Detection System. TAQMAN™ FAST UNIVERSAL PCR MASTER MIX™ (ABI, CA) was used with 20 ng of reverse transcribed RNA in a total reaction volume of 20 μl. Each cDNA sample was run in duplicate to allow correction of pipetting errors. Primers and FAM-labeled TAQMAN™ probes were used at concentrations of 200 nM. The level of expression for each target gene was normalized using the pre-developed Applied Biosystem's human glyceraldehyde-3-phosphate dehydrogenase (GAPDH) endogenous control kit. Primers and probes were designed using either ABI PRISM PRIMER EXPRESS™ software or a pre-developed ABI gene analysis kit. For each gene, either one of the primers or the probe were designed to be exon-boundary spanning. This eliminated the possibility of the primers/probe binding to any genomic DNA present. The primer and probe sets are listed as follows: Pdx-1 (Hs00426216), Insulin (Hs00355773), glucagon (Hs00174967), and FoxA2 (HNF 3-beta) (Hs00232764). The remaining primers were designed using the PRIMERS program (ABI, CA). After an initial 95° C. incubation for 20 sec, samples were cycled 40 times in two stages: a denaturation step at 95° C. for 3 sec, followed by an annealing/extension step at 60° C. for 30 sec.
(§5) For each primer/probe set, a cycle time value was determined as the cycle number at which the fluorescence intensity of the PCR reaction reached a specific value in the middle of the exponential region of amplification. An increase in expression of a gene corresponded to a decrease in the number of cycles required for the fluorescence intensity to reach this value.

[2] = test system: late passage (P11) pancreatic-derived stromal cell line; details: for HNF-3 beta gene expression / Insulin gene expression / Pdx-1 gene expression / glucagon gene expression: 5 μM for 6 h then removed
Procedure: as §1, §2, §3, §4, §5

[3] = test system: second amniotic fluid-derived cell line; details: for Gata1 gene expression / HNF-3 beta gene expression / Insulin gene expression / Pdx-1 gene expression / sox17 gene expression: 1.25 μM for 6 h then removed
Procedure: as §1, §2, §3, §4, §5

[4] = test system: amniotic fluid-derived cell line; details: for Gata1 gene expression / HNF-3 beta gene expression / Insulin gene expression / Pdx-1 gene expression / sox17 gene expression: 1.25 μM for 6 h then removed
Procedure: as §1, §2, §3, §4, §5

[5] = 5.0 μM, following 6 h treatment

SMILES: CC(/C=C/C(=O)NO)=C\[C@@H](C)C(=O)c1ccc(N(C)C)cc1 [trichostatin A]
- HNF-3 beta gene expression ([1]; 6 hrs): +++ (detectable at less than 35 cycles by RT-PCR with SE less than 0.9)
- Insulin gene expression ([1]; 6 hrs): nd (not detectable at >40 cycles by RT-PCR)
- Pdx-1 gene expression ([1]; 6 hrs): + (detectable between 35 and 40 cycles by RT-PCR)
- glucagon gene expression ([1]; 6 hrs): + (detectable between 35 and 40 cycles by RT-PCR)
- HNF-3 beta gene expression ([1]; 24 hrs): nd (not detectable at >40 cycles by RT-PCR)
- Insulin gene expression ([1]; 24 hrs): +++ (detectable at less than 35 cycles by RT-PCR with SE less than 0.9)
- Pdx-1 gene expression ([1]; 24 hrs): nd (not detectable at >40 cycles by RT-PCR)
- glucagon gene expression ([1]; 24 hrs): + (detectable between 35 and 40 cycles by RT-PCR)
- Insulin RT-PCR detection cycle ([1]; 5.0 μM, after trichostatin A was removed from the media): 32 cycles
- HNF-3 beta RT-PCR detection cycle [1, 5]: 35 cycles
- glucagon RT-PCR detection cycle [1, 5]: 37 cycles
- Pdx-1 RT-PCR detection cycle ([1]; 5.0 μM, following treatment (38 before treatment)): 35 cycles
- HNF-3 beta gene expression ([2]; 6 hrs): + (detectable between 35 and 40 cycles by RT-PCR)
- Insulin gene expression ([2]; 6 hrs): nd (not detectable at >40 cycles by RT-PCR)
- Pdx-1 gene expression ([2]; 6 hrs): + (detectable between 35 and 40 cycles by RT-PCR)
- glucagon gene expression ([2]; 6 hrs): + (detectable between 35 and 40 cycles by RT-PCR)
- HNF-3 beta gene expression ([2]; 24 hrs): nd (not detectable at >40 cycles by RT-PCR)
- Insulin gene expression ([2]; 24 hrs): nd (not detectable at >40 cycles by RT-PCR)
- Pdx-1 gene expression ([2]; 24 hrs): nd (not detectable at >40 cycles by RT-PCR)
- glucagon gene expression ([2]; 24 hrs): + (detectable between 35 and 40 cycles by RT-PCR)
- HNF-3 beta RT-PCR detection cycle [2, 5]: 36 cycles
- Pdx-1 RT-PCR detection cycle [2, 5]: 37 cycles
- glucagon RT-PCR detection cycle [2, 5]: 37 cycles
- glucagon RT-PCR detection cycle ([2]; 5.0 μM, following the removal): 35 cycles
- Gata1 gene expression ([3]; 6 hrs): nd (not detectable at >40 cycles by RT-PCR)
- HNF-3 beta gene expression ([3]; 6 hrs): +++ (detectable at less than 35 cycles by RT-PCR with SE less than 0.9)
- Insulin gene expression ([3]; 6 hrs): nd (not detectable at >40 cycles by RT-PCR)
- Pdx-1 gene expression ([3]; 6 hrs): +++ (detectable at less than 35 cycles by RT-PCR with SE less than 0.9)
- sox17 gene expression ([3]; 6 hrs): +++ (detectable at less than 35 cycles by RT-PCR with SE less than 0.9)
- Gata1 gene expression ([3]; 24 hrs): nd (not detectable at >40 cycles by RT-PCR)
- HNF-3 beta gene expression ([3]; 24 hrs): + (detectable between 35 and 40 cycles by RT-PCR)
- Insulin gene expression ([3]; 24 hrs): nd (not detectable at >40 cycles by RT-PCR)
- Pdx-1 gene expression ([3]; 24 hrs): nd (not detectable at >40 cycles by RT-PCR)
- sox17 gene expression ([3]; 24 hrs): +++ (detectable at less than 35 cycles by RT-PCR with SE less than 0.9)
- HNF-3 beta RT-PCR detection cycle ([3]; 1.25 μM, 6 hours of treatment): 31 cycles
- Pdx-1 RT-PCR detection cycle ([3]; 1.25 μM, 6 hours of treatment): 35 cycles
- HNF-3 beta RT-PCR detection cycle ([3]; 1.25 μM, following removal): 35 cycles
- Gata1 gene expression ([4]; 6 hrs): nd (not detectable at >40 cycles by RT-PCR)
- HNF-3 beta gene expression ([4]; 6 hrs): +++ (detectable at less than 35 cycles by RT-PCR with SE less than 0.9)
- Insulin gene expression ([4]; 6 hrs): nd (not detectable at >40 cycles by RT-PCR)
- Pdx-1 gene expression ([4]; 6 hrs): + (detectable between 35 and 40 cycles by RT-PCR)
- sox17 gene expression ([4]; 6 hrs): +++ (detectable at less than 35 cycles by RT-PCR with SE less than 0.9)
- Gata1 gene expression ([4]; 24 hrs): nd (not detectable at >40 cycles by RT-PCR)
- HNF-3 beta gene expression ([4]; 24 hrs): +++ (detectable at less than 35 cycles by RT-PCR with SE less than 0.9)
- Insulin gene expression ([4]; 24 hrs): nd (not detectable at >40 cycles by RT-PCR)
- Pdx-1 gene expression ([4]; 24 hrs): nd (not detectable at >40 cycles by RT-PCR)
- sox17 gene expression ([4]; 24 hrs): +++ (detectable at less than 35 cycles by RT-PCR with SE less than 0.9)
- Pdx-1 RT-PCR detection cycle ([4]; 1.25 μM, after treatment (37 before treatment)): 35 cycles
- HNF-3 beta RT-PCR detection cycle ([4]; 1.25 μM, following 6 h treatment): 32 cycles
- HNF-3 beta RT-PCR detection cycle ([4]; 1.25 μM, following the wash): 35 cycles
